{"source": "paper PMC5037758", "about": "“Affinity of ^nat/68Ga-Labelled Curcumin and Curcuminoid Complexes for β-Amyloid Plaques: Towards the Development of New Metal-Curcumin Based Radiotracers” (International Journal of Molecular Sciences, 2016)", "key": {"[1]": {"target": "T1, amyloid β-protein (1–40) (Homo sapiens, UniProt P05067)", "T1 construct": "gene APP; Aβ(1–40) synthetic amyloid fibrils", "T1 sequence (P05067 672-711)": "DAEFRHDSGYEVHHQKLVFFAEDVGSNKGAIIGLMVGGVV", "assay": "direct radioligand binding to fibrils with displacement by curcumin; fluorescence microscopy"}, "[2]": {"target": "T1, amyloid β-protein (1–40)", "assay": "direct radioligand binding to fibrils (not displaced by curcumin, lower specificity); fluorescence microscopy"}}, "data": [{"substance": "^68Ga(CUR)2^+", "values": [{"measurement": "% bound", "setting": "[1]", "value": "> 90", "unit": "% bound"}]}, {"substance": "^68Ga(DAC)2^+", "values": [{"measurement": "% bound", "setting": "[1]", "value": "> 90", "unit": "% bound"}]}, {"substance": "^68Ga(bDHC)2^+", "values": [{"measurement": "% bound", "setting": "[2]", "value": "~ 50 % bound"}]}]}
